Data reported in patent US4568490A, “Aminopropylaminobleomycin derivatives and process for preparation thereof” (Zaidan Hojin Biseibutsu Kagaku Kenkyu Kai, priority 1981, dated 1986).

Tests used:
[1] = tested on: Mycobacterium smegmatis ATCC 607; experiment: Antimicrobial activity, agar plate-cylinder method; format: cell-based; details: Cu-free form; bleomycin A2 (Cu-free form) standard assumed 1,000 mcg/mg
Procedure: (§1) The activity was assayed against the above test microorganisms by the method of agar plate-cylinder, assuming the potency of bleomycin A2 (Cu-free form), used as standard, to be 1,000 mcg/mg.

[2] = tested on: Bacillus subtilis; experiment: Antimicrobial activity, agar plate-cylinder method; format: cell-based; details: Cu-free form; bleomycin A2 (Cu-free form) standard assumed 1,000 mcg/mg
Procedure: (1) Antimicrobial activity against Mycobacterium smegmatis ATCC 697 and Bacillus subtilis.
as §1

[3] = tested on: Hela S3 cells; experiment: Growth inhibitory activity against Hela S3 cells; format: cell-based; details: Cu-free form; Hela S3, 3 days incubation with compound
Procedure: The percentage growth inhibition was calculated using the equation: […] wherein A is the ultimate number of cells on the third day from the addition of a test sample, B is the ultimate number of cells in the control (without the addition of test sample), and C is the number of cells on the day of addition of the test sample.

[4] = tested on: ICR strain mice; experiment: Pulmonary toxicity (pulmonary fibrosis) in mice, intraperitoneal injection; format: in vivo; details: 5 mg/kg i.p. once a day for 10 days; for Grade of pulmonary fibrosis, % / Incidence of pulmonary fibrosis, % / Incidence: number of mice suffering from pulmonary fibrosis / Grade: total score of pulmonary fibrosis/total number of test animal: autopsy after 5 weeks; for Incidence: number of mice suffering from pulmonary fibrosis: affected/total mice; for Grade: total score of pulmonary fibrosis/total number of test animal: score 0-6 points; for Grade of pulmonary fibrosis, Ratio / Incidence of pulmonary fibrosis, Ratio: reference of the ratio not stated
Procedure: (3) Pulmonary toxicity (pulmonary fibrosis) in mice.
ICR strain mice (male; 15 weeks old; 9 mice per group) were used. Each mouse was administered with a daily dose of 5 mg/kg of the test sample by intraperitoneal injection, once a day, for 10 consecutive days. After completion of the predetermined administration, the mice were kept for 5 weeks under observation, then slaughtered, and autopsied to examine the incidence and grade of pulmonary fibrosis. The evaluation was made by comparing the number of administered mice suffering from pulmonary fibrosis and the grade of the disease.
(§2) In Tables 4A and 4B, the grade was numerically rated as follows:
(§3) 1 point: Accumulation of exudate in pulmonary alveoli and fibrosis-like change in alveolar septum.
(§4) 2 points: Fibrosis in several areas.
(§5) 4 points: Scattered fibrosis.
(§6) 6 points: Fibrosis in more than two-thirds of the total area.

[5] = tested on: ICR mice; experiment: Pulmonary toxicity (pulmonary fibrosis) in mice, intratracheal instillation; format: in vivo; details: 16 μg/50 μl/mouse intratracheally, sacrificed 4 weeks after instillation; for Grade: total score of pulmonary fibrosis/total number of samples: score 0-6 points
Procedure: Male 15 weeks old ICR mice were used. Sixteen μg/50 μl/mouse of each test sample was intratracheally instilled. The mice were sacrificed 4 weeks after instillation to examine the incidence and grade of pulmonary fibrosis. The evaluation was made by comparing the number of administered mice suffering from pulmonary fibrosis and the grade of the disease.
as §2, §3, §4, §5, §6

## Cc1c(N)nc(C(CC(N)=O)NCC(N)C(N)=O)nc1C(=O)NC(C(=O)NC(C)C(O)C(C)C(=O)NC(C(=O)NCCc1nc(-c2nc(C(=O)NCCCN(C)CCCNCCc3ccc(Cl)cc3)cs2)cs1)C(C)O)C(OC1OC(CO)C(O)C(O)C1OC1OC(CO)C(O)C(OC(N)=O)C1O)c1cnc[nH]1 (stereo not drawn) [compound 1, 3-{N--Methyl-N--[3'-(2"-p-chlorophenylethylamino)propyl]amino}propylaminoBLM]
[1]
  Antimicrobial potency of Cu--free compound, against Mycobacterium smegmatis ATCC 607: 16800 mcg potency per mg
[2]
  Antimicrobial potency of Cu--free compound, against Bacillus subtilis: 13266 mcg potency per mg
[3]
  50% growth inhibition concentration (ID50) of Cu--free compound against cultured Hela cell: 0.54 µg/mL
[4]
  Grade of pulmonary fibrosis, %: 11%
  Incidence of pulmonary fibrosis, %: 22%
  Incidence: number of mice suffering from pulmonary fibrosis: 2/9
  Grade: total score of pulmonary fibrosis/total number of test animal: 3/27
  Grade of pulmonary fibrosis, Ratio: 0.13
  Incidence of pulmonary fibrosis, Ratio: 0.35

## Cc1c(N)nc(C(CC(N)=O)NCC(N)C(N)=O)nc1C(=O)NC(C(=O)NC(C)C(O)C(C)C(=O)NC(C(=O)NCCc1nc(-c2nc(C(=O)NCCCN(C)CCCN(Cc3ccc(OCc4ccc(OCc5ccccc5)cc4)cc3)Cc3ccc(OCc4ccc(OCc5ccccc5)cc4)cc3)cs2)cs1)C(C)O)C(OC1OC(CO)C(O)C(O)C1OC1OC(CO)C(O)C(OC(N)=O)C1O)c1cnc[nH]1 (stereo not drawn) [compound 51]
[1]
  Antimicrobial potency of Cu--free compound, against Mycobacterium smegmatis ATCC 607: 163 mcg potency per mg
[2]
  Antimicrobial potency of Cu--free compound, against Bacillus subtilis: 46 mcg potency per mg
[3]
  50% growth inhibition concentration (ID50) of Cu--free compound against cultured Hela cell: 0.12 µg/mL
[4]
  Grade of pulmonary fibrosis, %: 0%
  Incidence of pulmonary fibrosis, %: 0%
  Incidence: number of mice suffering from pulmonary fibrosis: 0/9
  Grade: total score of pulmonary fibrosis/total number of test animal: 0/27
  Grade of pulmonary fibrosis, Ratio: 0.00
  Incidence of pulmonary fibrosis, Ratio: 0.00

## Cc1c(N)nc(C(CC(N)=O)NCC(N)C(N)=O)nc1C(=O)NC(C(=O)NC(C)C(O)C(C)C(=O)NC(C(=O)NCCc1nc(-c2nc(C(=O)NCCCN3CCN(CCCNCc4ccc(Cl)cc4)CC3)cs2)cs1)C(C)O)C(OC1OC(CO)C(O)C(O)C1OC1OC(CO)C(O)C(OC(N)=O)C1O)c1cnc[nH]1 (stereo not drawn) [compound 44, 3-[4-(3-p-Chlorobenzylaminopropyl)piperazin-l-yl]propylaminoBLM]
[1]
  Antimicrobial potency of Cu--free compound, against Mycobacterium smegmatis ATCC 607: 11350 mcg potency per mg
[2]
  Antimicrobial potency of Cu--free compound, against Bacillus subtilis: 6080 mcg potency per mg
[3]
  50% growth inhibition concentration (ID50) of Cu--free compound against cultured Hela cell: 0.31 µg/mL
[4]
  Grade of pulmonary fibrosis, %: 0%
  Incidence of pulmonary fibrosis, %: 0%
  Incidence: number of mice suffering from pulmonary fibrosis: 0/9
  Grade: total score of pulmonary fibrosis/total number of test animal: 0/27
  Grade of pulmonary fibrosis, Ratio: 0.00
  Incidence of pulmonary fibrosis, Ratio: 0.00

## Cc1c(N)nc(C(CC(N)=O)NCC(N)C(N)=O)nc1C(=O)NC(C(=O)NC(C)C(O)C(C)C(=O)NC(C(=O)NCCc1nc(-c2nc(C(=O)NCCCN(C)CCCNCc3ccc([N+](=O)[O-])cc3)cs2)cs1)C(C)O)C(OC1OC(CO)C(O)C(O)C1OC1OC(CO)C(O)C(OC(N)=O)C1O)c1cnc[nH]1 (stereo not drawn) [MNBZ, 3-(N-methyl-N-3-p-nitro-benzylamino-propyl)aminopropylamino-bleomycin, reference compound]
[5]
  Grade of pulmonary fibrosis, %: 104%
  Incidence of pulmonary fibrosis, %: 89%
  Incidence: number of mice with pulmonary fibrosis/number of mice: 8/9
  Grade: total score of pulmonary fibrosis/total number of samples: 28/27

## Cc1c(N)nc(C(CC(N)=O)NCC(N)C(N)=O)nc1C(=O)NC(C(=O)NC(C)C(O)C(C)C(=O)NC(C(=O)NCCc1nc(-c2nc(C(=O)NCCCN(C)CCCNCC3CCCCC3)cs2)cs1)C(C)O)C(OC1OC(CO)C(O)C(O)C1OC1OC(CO)C(O)C(OC(N)=O)C1O)c1cnc[nH]1 (stereo not drawn) [compound 29, 3-{N--Methyl-N--[3'-(cyclohexylmethylamino)propyl]amino}propylaminoBLM]
[1]
  Antimicrobial potency of Cu--free compound, against Mycobacterium smegmatis ATCC 607: 15414 mcg potency per mg
[2]
  Antimicrobial potency of Cu--free compound, against Bacillus subtilis: 12148 mcg potency per mg
[3]
  50% growth inhibition concentration (ID50) of Cu--free compound against cultured Hela cell: 0.63 µg/mL

## Cc1c(N)nc(C(CC(N)=O)NCC(N)C(N)=O)nc1C(=O)NC(C(=O)NC(C)C(O)C(C)C(=O)NC(C(=O)NCCc1nc(-c2nc(C(=O)NCCCN(C)CCCNCC3CCCCCC3)cs2)cs1)C(C)O)C(OC1OC(CO)C(O)C(O)C1OC1OC(CO)C(O)C(OC(N)=O)C1O)c1cnc[nH]1 (stereo not drawn) [compound 31, 3-{N--Methyl-N--[3'-(cycloheptylmethylamino)propyl]amino}propylaminoBLM]
[1]
  Antimicrobial potency of Cu--free compound, against Mycobacterium smegmatis ATCC 607: 25924 mcg potency per mg
[2]
  Antimicrobial potency of Cu--free compound, against Bacillus subtilis: 20143 mcg potency per mg
[3]
  50% growth inhibition concentration (ID50) of Cu--free compound against cultured Hela cell: 0.48 µg/mL

## Cc1c(N)nc(C(CC(N)=O)NCC(N)C(N)=O)nc1C(=O)NC(C(=O)NC(C)C(O)C(C)C(=O)NC(C(=O)NCCc1nc(-c2nc(C(=O)NCCCN(C)CCCNCCC3CCCCC3)cs2)cs1)C(C)O)C(OC1OC(CO)C(O)C(O)C1OC1OC(CO)C(O)C(OC(N)=O)C1O)c1cnc[nH]1 (stereo not drawn) [compound 30, 3-{N--Methyl-N--[3'-(cyclohexylethylamino)propyl]amino}propylaminoBLM]
[1]
  Antimicrobial potency of Cu--free compound, against Mycobacterium smegmatis ATCC 607: 35030 mcg potency per mg
[2]
  Antimicrobial potency of Cu--free compound, against Bacillus subtilis: 14440 mcg potency per mg
[3]
  50% growth inhibition concentration (ID50) of Cu--free compound against cultured Hela cell: 0.56 µg/mL

## Cc1c(N)nc(C(CC(N)=O)NCC(N)C(N)=O)nc1C(=O)NC(C(=O)NC(C)C(O)C(C)C(=O)NC(C(=O)NCCc1nc(-c2nc(C(=O)NCCCNC(C)c3ccccc3)cs2)cs1)C(C)O)C(OC1OC(CO)C(O)C(O)C1OC1OC(CO)C(O)C(OC(N)=O)C1O)c1c[nH]cn1 [PEP, 3-[(S)-1'-phenylethylamino]propylamino-bleomycin, reference compound]
[5]
  Grade of pulmonary fibrosis, %: 150%
  Incidence of pulmonary fibrosis, %: 75%
  Incidence: number of mice with pulmonary fibrosis/number of mice: 6/8
  Grade: total score of pulmonary fibrosis/total number of samples: 36/24

## Cc1c(N)nc(C(CC(N)=O)NCC(N)C(N)=O)nc1C(=O)NC(C(=O)NC(C)C(O)C(C)C(=O)NC(C(=O)NCCc1nc(-c2nc(C(=O)NCCCN(C)CCCNCC3CCCC3)cs2)cs1)C(C)O)C(OC1OC(CO)C(O)C(O)C1OC1OC(CO)C(O)C(OC(N)=O)C1O)c1cnc[nH]1 (stereo not drawn) [compound 28, 3-{N--Methyl-N--[3'-(cyclopentylmethylamino)propyl]amino}propylaminoBLM]
[1]
  Antimicrobial potency of Cu--free compound, against Mycobacterium smegmatis ATCC 607: 13595 mcg potency per mg
[2]
  Antimicrobial potency of Cu--free compound, against Bacillus subtilis: 16180 mcg potency per mg
[3]
  50% growth inhibition concentration (ID50) of Cu--free compound against cultured Hela cell: 1.00 µg/mL

## Cc1c(N)nc(C(CC(N)=O)NCC(N)C(N)=O)nc1C(=O)NC(C(=O)NC(C)C(O)C(C)C(=O)NC(C(=O)NCCc1nc(-c2nc(C(=O)NCCCNCCCNC(C)c3ccccc3)cs2)cs1)C(C)O)C(OC1OC(CO)C(O)C(O)C1OC1OC(CO)C(O)C(OC(N)=O)C1O)c1cnc[nH]1 (stereo not drawn) [PEPP, 3-[3-(N-1-phenylethyl)aminopropyl]aminopropylamino-bleomycin, reference compound]
[5]
  Grade of pulmonary fibrosis, %: 56%
  Incidence of pulmonary fibrosis, %: 89%
  Incidence: number of mice with pulmonary fibrosis/number of mice: 8/9
  Grade: total score of pulmonary fibrosis/total number of samples: 15/27
